# In US10591497B2, “Immunoassay for synthetic cannabinoids of the adamantyl indazole/indole-3-carboxamide family” (Randox Laboratories Limited, priority 2014, dated 2020):
# Test system: antibody derived from Immunogen of Example 9
# Test: Competitive immunoassay (ELISA), IC50 derivation and cross-reactivity
# Type: binding, sheep
# Conditions: for % CROSS-REACTIVITY: compared to 100% for AKB48; for % CROSS-REACTIVITY / IC50: Tracer 1 of Example 10; for IC50: Table 2, generated as per AKB48 and Table 1; for binding to the antibodies of the invention: "does not bind" = cross-reactivity of less than 2% vs 100% for AKB48 under Example 12 conditions
# Description: All cross-reactivity are measured herein under the experimental conditions of Example 12 and compared to 100% for AKB48.
# IgG is extracted from the antisera and immobilised on a 96 well ELISA plate (coated for 2 hours at +37° C. at 10 ug/ml in a Phosphate Buffered Saline pH7.2). Unbound material is removed by washing with Tris Buffered Saline (TBS) containing tween ([…]) over 10 minutes. Standard AKB48 is added at the concentrations quoted in Table 1, followed by detection agent 1 (FIG. 2) at 1/140 k in a dilution buffer. After incubation (60 mins) at +15 to +25° C. to allow a competition reaction to take place, the microtitre plate is washed with TBS containing Tween™ to remove excess reagents. The enzyme substrate […] (125 μl) is added (Kem-en-Tec Cat. No. 4800). After a 20 minute incubation period to allow maximum colour development, the colour reaction is stopped by the addition of sulphuric acid (0.2M, 120 μl). This produces a colour change from blue to yellow, and the absorbances are read at 450 nm. A standard curve is then constructed and the IC50 calculated as the AKB48 concentration which produces 50% inhibition of maximal signal. This process was repeated for synthetic cannabinoid members as stated in Table 2 to assess cross-reactivity.
# The cross-reactivity (CR) was calculated using the equation below. All calculations were based upon binding and displacement at the 50% of maximum OD (optical density) binding point. The maximum OD is the signal generated using tracer alone and 50% displacement (inhibition) corresponds to the IC50. […]
# The extent of antibody binding to synthetic cannabinoids of various families was assessed (Table 2). For the cross-reactants with IC50 values, standard curves were derived for each analyte (as per AKB48 and Table 1). […] In all cases, the cross-reactivity set out in Table 2 was measured using an antibody derived from the immunogen of Example 9 and Tracer 1 of Example 10.
# [1] = single cross-reactant at 300 ng/ml
# [2] = standard curve derived for each analyte
Structure (SMILES),% CROSS-REACTIVITY [1],binding to the antibodies of the invention,other results
O=C(O)c1cn(CC2CCCCC2)c2ccccc12 [3-Carboxyindole metabolite of BB-22],<1.00%,–,–
"CCCCCn1nc(C(=O)NC23CC4CC(CC(O)(C4)C2)C3)c2ccccc21 [3-OH-AKB48, (3-hydroxy-1-adamantyl) 1-pentylindazole-3-carboxamide]",–,–,IC50: 0.18 ng/mL; % CROSS-REACTIVITY [2]: 1163.53%
CCCCCn1cc(C(=O)NC23CC4CC(CC(O)(C4)C2)C3)c2ccccc21 [3-OH-SDB001],–,–,IC50: 4.40 ng/mL; % CROSS-REACTIVITY [2]: 47.30%
O=C(O)c1cn(CCCCCF)c2ccccc12 [3-carboxyindole of 5-fluoro PB-22],<1.00%,–,–
O=C(Oc1cccc2cccnc12)c1cn(CCCCCF)c2ccccc12 [5-fluoro PB-22],<1.00%,–,–
CC1(C)C(C(=O)c2cn(CC3CCOCC3)c3ccccc23)C1(C)C [A-834735],<1.00%,–,–
CC1(C)C(C(=O)c2cn(CCN3CCOCC3)c3ccccc23)C1(C)C [A-7969260],<1.00%,–,–
O=C(O)CCCCn1cc(C(=O)C23CC4CC(CC(C4)C2)C3)c2ccccc21 [AB001 N-Pentanoic Acid],<1.00%,do not bind,–
O=C(c1cn(CCCCCO)c2ccccc12)C12CC3CC(CC(C3)C1)C2 [AB001 N-Pentanol],<1.00%,do not bind,–
CCCCCn1nc(C(=O)N[C@H](C(N)=O)C(C)C)c2ccccc21 [AB Pinaca],<1.00%,does not bind,–
O=C(NC12CC3CC(CC(C3)C1)C2)c1nn(CCCCCF)c2ccccc12 [AKB48 N-(5-fluoropentyl)],–,–,IC50: 2.10 ng/mL; % CROSS-REACTIVITY [2]: 98.90%
O=C(O)CCCCn1nc(C(=O)NC23CC4CC(CC(C4)C2)C3)c2ccccc21 [AKB48 N-Pentanoic acid (LK1461)],<1.00%,do not bind,–
"CCCCCn1cc(C(=O)NC23CC4CC(CC(C4)C2)C3)c2ccccc21 [AKB48, N-(1-adamantyl)-1-pentyl-1H-indole-3-carboxamide]",–,–,% B/B0 (AKB48 concentration 0.25 ng/ml): 88%; % B/B0 (AKB48 concentration 0.74 ng/ml): 69%; % B/B0 (AKB48 concentration 2.22 ng/ml): 50%; % B/B0 (AKB48 concentration 6.67 ng/ml): 26%; % B/B0 (AKB48 concentration 20.00 ng/ml): 12%; IC50: 2.08 ng/mL; % CROSS-REACTIVITY [2]: 100.00%
N#CCCCCn1cc(C(=O)c2cccc3ccccc23)c2ccccc21 [AM2232],<1.00%,–,–
O=C(c1ccccc1I)c1cn(CCCCCF)c2ccccc12 [AM-694],<1.00%,does not bind,–
CN1CCCCC1Cn1cc(C(=O)C23CC4CC(CC(C4)C2)C3)c2ccccc21 (stereo not drawn) [AM-1248],<1.00%,does not bind,–
O=C(c1cccc2ccccc12)c1cn(CCCCCF)c2cc(O)ccc12 [AM-2201 6-Hydroxyindole],<1.00%,–,–
O=C(c1cccc2ccccc12)c1cn(CCCC(O)CF)c2ccccc12 (stereo not drawn) [AM-2201 N-(4-Hydroxypentyl)],<1.00%,–,–
O=C(c1cccc2ccccc12)c1cn(CCCCCF)c2ccccc12 [AM-2201],<1.00%,–,–
O=C(Oc1cccc2cccnc12)c1cn(CC2CCCCC2)c2ccccc12 [BB-22],<1.00%,–,–
CCCCCn1c(C)c(C(=O)c2cccc3ccccc23)c2ccccc21 [JWH-007],<1.00%,–,–
CCCn1c(C)c(C(=O)c2cccc3ccccc23)c2ccccc21 [JWH-015],<1.00%,–,–
CCCCCn1cc(C(=O)c2cccc3ccccc23)c2c(O)cccc21 [JWH-018 4-Hydroxyindole],<1.00%,–,–
CCCCCn1cc(C(=O)c2cccc3ccccc23)c2cc(O)ccc21 [JWH-018 5-Hydroxyindole],<1.00%,–,–
CCCCCn1cc(C(=O)c2cccc3ccccc23)c2ccc(O)cc21 [JWH-018 6-Hydroxyindole],<1.00%,–,–
O=C(c1cccc2ccccc12)c1cn(CCCCCO)c2ccccc12 [JWH-018 N-(5-Hydroxypentyl)],<1.00%,–,–

Structure (SMILES),% CROSS-REACTIVITY [1],binding to the antibodies of the invention,other results
O=C(O)CCCCn1cc(C(=O)c2cccc3ccccc23)c2ccccc21 [JWH-018 N-Pentanoic acid],<1.00%,–,–
CCCCCn1cc(C(=O)c2cccc3ccccc23)c2ccccc21 [JWH-018],<1.00%,do not bind,–
CCCCCCn1cc(C(=O)c2cccc3ccccc23)c2ccccc21 [JWH-019],<1.00%,–,–
C=CCCCn1cc(C(=O)c2cccc3ccccc23)c2ccccc21 [JWH-022],<1.00%,–,–
CCCCn1cc(C(=O)c2cccc3ccccc23)c2c(O)cccc21 [JWH-073 4-Hydroxyindole],<1.00%,–,–
CCCCn1cc(C(=O)c2cccc3ccccc23)c2cc(O)ccc21 [JWH-073 5-Hydroxyindole],<1.00%,–,–
CCCCn1cc(C(=O)c2cccc3ccccc23)c2ccccc21 [JWH-073],<1.00%,do not bind,–
CCCCCn1cc(C(=O)c2ccc(OC)c3ccccc23)c2ccccc21 [JWH-081],<1.00%,–,–
O=C(c1cccc2ccccc12)c1cn(CCN2CCOCC2)c2ccccc12 [JWH-200],<1.00%,do not bind,–
CCCCCn1cc(C(=O)Cc2ccccc2Cl)c2ccccc21 [JWH-203],<1.00%,does not bind,–
CCCCCn1cc(C(=O)c2ccc(CC)c3ccccc23)c2ccccc21 [JWH-210],<1.00%,–,–
COc1ccccc1CC(=O)c1cn(CCCCCC(=O)O)c2ccccc12 [JWH-250 N-(5-Carboxypentyl)],<1.00%,do not bind,–
COc1ccccc1CC(=O)c1cn(CCCCCO)c2ccccc12 [JWH-250 N-(5-Hydroxypentyl)],<1.00%,do not bind,–
CCCCCn1cc(C(=O)c2ccc(Cl)c3ccccc23)c2ccccc21 [JWH-398],<1.00%,–,–
O=C(c1c[nH]c2ccccc12)C12CC3CC(CC(C3)C1)C2 [N-Desalkyl AB001],<1.00%,–,–
CCCCCn1cc(C(=O)O)c2ccccc21 [PB-22 3-Carboxyindole metabolite],<1.00%,–,–
CCCCCn1cc(C(=O)Oc2cccc3cccnc23)c2ccccc21 [PB-22],<1.00%,does not bind,–
CCCCCn1cc(C(=O)c2ccc(OC)cc2)c2ccccc21 [RCS-4],–,does not bind,IC50: 124.55 ng/mL; % CROSS-REACTIVITY [2]: 1.67%
COc1ccccc1CC(=O)c1cn(CCC2CCCCC2)c2ccccc12 [RCS-8],<1.00%,does not bind,–
CCCCCn1cc(C(=O)NC23CC4CC(CC(C4)C2)C3)c2ccccc21 [SDB001],–,–,IC50: 52.00 ng/mL; % CROSS-REACTIVITY [2]: 4.07%
O=C(O)CCCCn1cc(C(=O)NC23CC4CC(CC(C4)C2)C3)c2ccccc21 [SDB-001 N-Pentanoic acid (LK1404)],<1.00%,do not bind,–
O=C(NC12CC3CC(CC(C3)C1)C2)c1cn(CCCCCF)c2ccccc12 [STS135],–,–,IC50: 24.76 ng/mL; % CROSS-REACTIVITY [2]: 8.41%
CC1(C)C(C(=O)c2cn(CCCCC(=O)O)c3ccccc23)C1(C)C [UR-144 N Pentanoic acid],<1.00%,–,–
CCCCCn1cc(C(=O)C2C(C)(C)C2(C)C)c2ccccc21 [UR-144],<1.00%,do not bind,–
CC1(C)C(C(=O)c2cn(CCCCCF)c3ccccc23)C1(C)C [XLR-11],<1.00%,do not bind,–
